Peptide text beside a SMILES is read from it. * marks the point of attachment. Cbz = O=C(OCc1ccccc1)*; CH2F = FC*

We go through 8 compounds from patent publication US9408859B2, “Pharmaceutical compositions useful for preventing and treating cancer” (Mitotech SA, priority 2007, dated 2016).

The subject of one experiment is Lung Lewis's carcinoma. Nature of the experiment: SkQ1 combined with doxorubicin on growth of lung Lewis's carcinoma. Format: in vivo, mouse. To be noted: regime per group. Here is the method:
For development of oncological diseases joint therapy that combines SkQ1 and chemotherapy, a study on SkQ1 influence on single doxorubicin injection efficiency was performed (one of the mechanisms of the preparation is activation of oxidative processes in normal and cancerous cells). SkQ1 was introduced before, simultaneously, or after introduction of doxorubicin in maximum dose of 500 nM/kg (in order to block oxidative mechanism of doxorubicin influence).
Doxorubicin was applied before, after, and during the course of SkQ1.

Experiment [1] concerns human rhabdomyosarcoma cell line (RD). Nature of the experiment: Apoptosis in RD cells (Hoechst staining, propidium iodide flow cytometry). Format: cell-based. The note with it: for Induction of apoptosis: 1 mM NAC or 100 mM Trolox for 24 hours. Here is the method:
To determine the viability of the cells, chromatine condensation and fragmentation was analyzed in similarly-treated cells (20 nM SkQ or 1 mM NAC or 100 mM Trolox for 24 hours and 1 μm FCCP one hour before SkQ1 where indicated) after staining with Hoechst 3342 (GenScript, Cat. No. L00309, performed according to manufacture manual http://www.genscript.com/tech_guide/TM0361.pdf). The cells were then examined using an Axiovert fluorescent microscope equipped with objectives 20× (dry) and 100× (oil immersion Neofluar) (Carl Zeiss).
Further evidence of apoptosis was obtained by analysis of DNA content in the cellular population using flow cytometry. Cells were incubated with 0.05% ethanol was added (control) or with 20 nM SkQ1 for 24 hours, and then fixed and stained with propidium iodide (5 μM). They were then analyzed by flow cytometry using a FC-500 FACS (Beckman Coulter, Inc., Brea, Calif.).
A general note: In flow cytometry, cells or beads pass a laser one at a time.

The subject of experiment [2] is tumor xenografts (tumors of epithelial cancers). The note with it: as stated in WO2006005759, cited from earlier work.
Experiment [3] relates to human rhabdomyosarcoma cell line (RD). Nature of the experiment: RD cell morphology, attachment and multinuclear cells. In kind it is cell-based. To be noted: 20 nM, pretreatment for 24 hours. Here is the method:
In the following experiment, a human rhabdomyosarcoma cell line (RD) purchased from the ATCC (#CCL-136) was used. These cells were isolated from a […] 7 years ago and are widely accepted as a model for studies of rhabdomyosarcoma in vitro and in vivo.
The cells were grown in Dulbecco's modified Eagle's medium (DMEM, Gibco®, Invitrogen, Carlsbad, Calif.) supplemented with 10% FBS. The cells were treated with 20 nM SkQ (SkQ1, SkQR1, SkQB1, or SkQBP1), or with a non-targeted antioxidant (1 mM NAC, or 100 μM Trolox) 24 to 72 hours before evaluation. In some experiments 1 μM of the protonophorous uncoupler FCCP was added 1 hour before the addition of SkQ1 to depolarize the mitochondrial membrane, and thus to prevent the electrophoretic accumulation of SkQ in the mitochondrial interior. The cells were then stained with rabbit polyclonal antibodies against actin (1:1000) (Sigma-Aldrich Corp., Baleras, Russia) and monoclonal antibody DM1A against tubulin (1:1000) (Sigma-Aldrich Corp.), and their morphology examined using an Axiovert fluorescent microscope equipped with objectives 20× (dry) and 100× (oil immersion Neofluar) (Carl Zeiss, Germany).

Consider `COc1cccc2c1C(=O)c1c(O)c3c(c(O)c1C2=O)C[C@@](O)(C(=O)CO)C[C@@H]3O[C@H]1C[C@H](N)[C@H](O)[C@H](C)O1` [DOX, doxorubicin, reference compound], for which the “TGS %, by tumor volume” value was determined as 26% with Lung Lewis's carcinoma (Day 10); 38% with Lung Lewis's carcinoma (Day 14); 36% in the experiment with Lung Lewis's carcinoma (Day 14, listed as doxorubicin); 35% with Lung Lewis's carcinoma (Day 17); 30% in the experiment with Lung Lewis's carcinoma (Day 21).

Consider `N#CC(C#N)=NNc1ccc(OC(F)(F)F)cc1` [FCCP], for which, in experiment [1] (1 μm FCCP one hour before SkQ1), the “Effect on pro-apoptotic action of SkQs” value is “prevented their pro-apoptotic action”.

For `COC1=C(OC)C(=O)C(CCCCCCCCCC[P+](c2ccccc2)(c2ccccc2)c2ccccc2)=C(C)C1=O` [MitoQ], in experiment [2], the necrosis result is given as “increased necrosis” and the “vascularization of the tumor xenografts” value was “decreased vascularization”. Also, in experiment [2] (no experimental data shown), the tumor size result was “tumor size reduction”.

Take `CC(=O)N[C@@H](CS)C(=O)O` [NAC]: the Induction of apoptosis entry in experiment [1] is “induced apoptosis in RD cells but only at much higher concentrations”.

For `COc1ccc2c(CC(=O)OCCCCCCCC3=CC(=O)C(C)=C(C)C3=O)c3[n+](cc2c1OC)CCc1cc2c(cc1-3)OCO2` [SkQB1], in experiment [3], the Cell morphology entry is listed as “induced the formation of elongated cells”.

For `COc1cc2c(cc1OC)-c1c(CC(=O)OCCCCCCCC3=CC(=O)C(C)=C(C)C3=O)c3ccc(OC)c(OC)c3c[n+]1CC2` [SkQBP1], the Cell morphology entry in experiment [3] is “induced the formation of elongated cells”.

Consider `Cc1c(C)c2c(c(C)c1O)CCC(C)(C(=O)O)O2` (centres unmarked) [Trolox], for which the Induction of apoptosis result in experiment [1] is listed as “induced apoptosis in RD cells but only at much higher concentrations”.

`COC(=O)C[C@H](NC(=O)[C@H](C)NC(=O)[C@@H](NC(=O)OCc1ccccc1)C(C)C)C(=O)CF` [zVADfmk] (Cbz-Val-Ala-Asp(OMe)-CH2F): the “Effect on cell death caused by SkQs” value in experiment [1] (pan-caspase inhibitor) is “Cell death was prevented”.
